Measurements: EP0772773B1, “Src SH3 BINDING PEPTIDES AND METHODS OF ISOLATING AND USING SAME” (THE UNIVERSITY OF NORTH CAROLINA, priority 1994, dated 2006)
Entries after “also recorded” stand apart in the source; their conditions may differ.

Columns and labels:
SH3 domains [1] = experiment: Relative specificity of peptide binding across SH3 domains derived from different proteins; details: synthetic peptides, compared with 7-mer RPLPPLP, Figures 7 and 8
Source text: (§1) The preparation of Src-GST fusion protein was first described by Smith and Johnson, in Gene (1988) 67:31, the disclosure of which is incorporated by reference herein. Briefly, pGEX-derived (Pharmacia, Piscataway, NJ) constructs expressing GST fusion proteins containing the SH3 domains of Src, Grb2, Crk, Abl, or PLCγ were obtained from Dr. Channing Der (University of North Carolina at Chapel Hill.), a construct expressing the SH3 domain of Yes was obtained from Dr. Marius Sudol (Rockefeller University). The use of the pGEX bacterial expression vector for the production of GST-SH3 fusion proteins is well-known to those in the art. See, e.g., Cicchetti, P. et al., in Science (1992) 257:803-806. Briefly, the coding region for a particular SH3 domain can be fused in-frame at the Bam HI site of pGEX-2T. Thus, fusion proteins were prepared as per the manufacturer's instructions, and quantified by Coomassie Blue staining of SDS-polyacrylamide gels. Microtiter wells were coated with 5-20 µg GST-SH3 fusion protein in 100 mM NaHCO3, pH 8.5, blocked with 100 mM NaHCO3 (pH 8.5) 1% BSA, and washed. All washes consisted of five applications of 1XPBS, 0.1% Tween 20, 0.1% BSA (Buffer A). Where appropriate, the amount of protein bound to each well was quantified with an anti-GST antibody-based ELISA (Pharmacia, Piscataway, NJ), and with a GST-binding phage, isolated during the course of this work.
(§2) Peptides were obtained from Research Genetics (Birmingham, AL), Chiron Mimotopes (Victoria, Australia), or synthesized by conventional techniques by Dr. J. Mark Carter of cytogen Corporation (Princeton, NJ). Peptide purity was assessed by HPLC and/or mass spectrometry. Biotinylated peptides were synthesized with either a KSGSG (SEQ ID NO:103) or a GSGS (SEQ ID NO:104) peptide linker (a spacer) between the biotin and the N-terminus of the peptide. Binding experiments were performed as above, excepting the use of 10 µM peptide instead of phage. Bound biotinylated peptide was detected with streptavidin conjugated to alkaline phosphatase (Sigma chemical Co., st. Louis, MO). After one hour incubation period at room temperature, the wells were washed, and a solution of 3 mM p-nitrophenyl-phosphate (US Biochemicals, Cleveland, OH) in 50 mM NaCO3 (pH 9.8), and 50 mM MgCl2 was added and color allowed to develop. Signals were read with an ELISA plate reader (Molecular Devices, Menlo Park, CA) at 405 nm wavelength. Binding experiments were performed in triplicate.

NIH 3T3 fibroblasts = experiment: Fluorescence staining of fixed fibroblasts with biotinylated peptides and streptavidin-Cy3; type: cell-based; details: fixed NIH 3T3 fibroblasts; biotinylated peptide, streptavidin-Cy3; Figure 11
Protocol: Thus, NIH 3T3 fibroblasts were cultured in vitro on glass coverslips coated with fibronectin. After two days of growth at 37 °C, the cells were fixed for one hour at room temperature in the presence of 2% paraformaldehyde (pH 7.5). The coverslips were washed with PBS-0.1% Tween 20 several times to remove the fixative. Next, the coverslips were dipped into acetone (chilled at -20 °C) for approximately 20 seconds and allowed to air-dry. The coverslips were washed again with PBS-0.1% Tween 20, containing BSA (1 mg/mL), and incubated for 2 hours at room temperature with different biotinylated peptides in PBS-0.1% Tween 20. The coverslips were washed and then incubated with 1 mg/mL streptavidin-Cy3 (Jackson Immunoresearch Co., West Grove, PA) for 1 hour at room temperature. Finally, the coverslips were washed in PBS-0.1% Tween 20, mounted in a glycerol solution on a glass slide, and viewed with a Nikon Optiphot epifluorescence microscope and a 60x oil immersion lens.

Yes SH3-GST = experiment: Biotinylated synthetic peptide direct binding ELISA on immobilized GST-SH3 fusion; details: 10 µM biotinylated peptide, absorbance at 405 nm, Figure 8
Source text: as §1, §2

Src SH3-GST = experiment: as above; details: 10 µM biotinylated peptide; streptavidin-alkaline phosphatase ELISA, absorbance at 405 nm; Figures 7 and 8
Source text: as §1
Bacterially expressed Src SH3 glutathione-s-transferase (Src-GST) fusion protein was purified from bacterial lysates using glutathione agarose 4B (Pharmacia), according to the manufacturer's instructions. Bound Src-GST fusion protein was eluted from the glutathione agarose with 10 mM glutathione in PBS. Microtiter wells were then coated with Src-GST fusion protein (1-10 µg/well, in 50 mM NaHCO3, pH 8.5) overnight at 4 °C. To block non-specific binding of phage, 100 µL 1% BSA in 100 mM NaHCO3, pH 8.5, was added to each well and allowed to incubate at room temperature for 1 hour. The wells were then washed five times with 200 µL PBS, 0.1% Tween 20, 0.1% BSA (Buffer A).
as §2

Grb2-GST = experiment: as above; details: 10 µM biotinylated peptide, absorbance at 405 nm, Figure 8
Source text: as §1, §2

PLCγ1 SH2SH3-GST = experiment: as above; details: 10 µM biotinylated peptide, absorbance at 405 nm, Figure 8
Source text: as §1, §2

[2] = biological target: Src and PI-3' Kinase SH3 domains; details: Yu et al. / Chen et al., biased library peptides; read-out: binding affinity; cited from earlier work
SH3 domains [3] = experiment: Relative specificity of peptide binding across SH3 domains derived from different proteins; details: not tested

Substance	relative binding affinity / specificity for SH3 domains (SH3 domains [1])	fluorescence staining / cellular localization (NIH 3T3 fibroblasts)	binding to Src SH3-GST (Src SH3-GST)	also measured
ANPSPATRPLPTR	binding affinities comparable to the core consensus sequence; also recorded: avid binding affinity to SH3 domains relative to the 7-mer	–	–	relative binding affinity / specificity for SH3 domains (SH3 domains [1]; listed as AHPSPATRPLPTR): Src family specificity similar to GPHRRLPPTPATR
GILAPPVPPRNTR	binds generically to a broad range of SH3 domains; also recorded: avid binding affinity to SH3 domains relative to the 7-mer; also recorded: more generic SH3 domain-binding characteristics	localize within cellular compartments thought to contain Src or Src-related proteins	much more avidly than the 7-mer	binding to Yes SH3-GST (Yes SH3-GST): much more avidly than the 7-mer
GPHRRLPPTPATR	specific to Src family SH3 domains	–	much more avidly than the 7-mer	binding to Grb2 SH3 domain (Grb2-GST): little affinity; binding to Yes SH3-GST (Yes SH3-GST): much more avidly than the 7-mer; binding to PLCγ SH3 domain (PLCγ1 SH2SH3-GST): little affinity; relative binding affinity / specificity for SH3 domains (SH3 domains [1]; listed as GPHRRLPPPTPATR): avid binding affinity to SH3 domains relative to the 7-mer
GTVEPVPPPVPPRRRPESA [reference compound]	–	–	less well than the library-derived peptides	–
KISPPTPKPKPPRPLPV [reference compound]	–	–	less well than the library-derived peptides	–
RKLPPRPRR ["composite" peptide of the literature]	–	–	–	Kd [2]: 7.6 µM
RPLPPLP	less effective in binding to target SH3 domains	–	only weakly	–
RSTPAPPVPPRTTR	–	–	–	surmised binding to a variety of SH3 domains (SH3 domains [3]): strong but generic binding
RSTPRPLPMLPTTR	highly specific for SH3 domain of Src, Yes, and other Src-related proteins	–	much more avidly than the 7-mer; also recorded: strong specific binding affinity	binding to Yes SH3-GST (Yes SH3-GST): much more avidly than the 7-mer
RSTPRPLPPLPTTR [representative consensus motif with R8C.YES3.5 flanking residues]	highly specific for SH3 domain of Src, Yes, and other Src-related proteins	localize within cellular compartments thought to contain Src or Src-related proteins	much more avidly than the 7-mer; also recorded: strong specific binding affinity	binding to Yes SH3-GST (Yes SH3-GST): much more avidly than the 7-mer
biotin-spacer-GILAPPVPPRNTR	–	bright display of fluorescence activity	–	–
biotin-spacer-LAPPKPPLPEGEV [reference compound]	–	relatively "dark" features	–	–
biotin-spacer-RSTPRPLPPLPTTR	–	bright display of fluorescence activity	–	–
biotin-spacer-VLKRPLPIPPVTR	–	bright display of fluorescence activity	–	–
